System: M. tuberculosis H37Rv growth inhibition
Assay: M. tuberculosis H37Rv growth inhibitors, H37Rv strain (AID 1626)
Details: for IC90: measured here: IC90 against H37Rv; for CC50: measured here: Vero cell cytotoxicity

SMILES | IC50 [µM] | IC90 [µM] | CC50 [µM]
Oc1ccccc1CNc1cnc2ccccc2c1 | 11.1 | > 100 | > 40
Cc1ccc(OCc2nnc(SCc3cc(=O)[nH]c4ccccc34)n2-c2ccccc2)cc1 | 27.8 | > 100 | > 40
COc1ccc(NC(=O)CCc2nc(-c3ccc(C)cc3)no2)cc1Cl | 3.59 | > 100 | > 40
O=C(CSc1nnc(CNc2cccc(Cl)c2)o1)OC1CCCCC1 | 0.661 | 1.4 | –
Cc1cc(Nc2ccccc2)nc(NCc2ccccc2)n1 | 10.9 | 14.4 | 23.3
CC[n+]1c(/C=C2\Sc3ccccc3N2C)ccc2cccc(C)c21 | 1.01 | 1.4 | 2.41
O=C(NCc1ccco1)c1cc([N+](=O)[O-])cc([N+](=O)[O-])c1 | 1.46 | 1.65 | –
Cc1nn2c(NCCCN(C)C)c3c(nc2c1-c1ccccc1)CCC3 | 45.7 | 50.1 | 23.2
CCCCNC(=O)Nc1nnc(-c2ccc(Cl)cc2)o1 | 1.33 | 3.59 | –
CCOC(=O)c1ccc(COC(=O)c2ccc(-c3nnc(-c4ccccc4)o3)cc2)o1 | 23.4 | > 100 | > 40
CN(C)CCNC(=O)/C(=C/c1ccc(-c2ccc(Cl)cc2Cl)o1)NC(=O)c1ccccc1 | 10.5 | 11.6 | 10.2
O=C1Nc2ccccc2C1=Nc1ccc(S(=O)(=O)Nc2nccs2)cc1 | 4.54 | 11.3 | –
Fc1cccc2sc(Nc3nnc(-c4ccco4)o3)nc12 | < 0.195 | 3.19 | 36.4
O=C(CC(=O)c1ccccc1O)c1cccc(F)c1 | 18.4 | 29.2 | > 40
Nc1ccc2ncccc2c1 | 37.9 | > 100 | –
COC(=O)c1ccnc(SCC(=O)c2ccccc2)c1 | 15.8 | 26.6 | –
O=C(COc1ccc2c(C(F)(F)F)cc(=O)oc2c1)NCc1cccs1 | 14.8 | > 100 | –
Cc1ccccc1NC(=O)Nc1ccc(C(F)(F)F)cc1 | – | > 100 | 23.5
Cc1nn2c(NCc3ccccn3)cc(C(C)C)nc2c1-c1ccccc1 | – | – | > 40
COC(=O)c1cccc(NC(=O)NC23CC4CC(CC(C4)C2)C3)c1 | 23.9 | > 100 | > 40

SMILES | IC50 [µM] | IC90 [µM] | CC50 [µM]
O=[N+]([O-])c1ccc(O)c(C=Nc2ccc3oc(Cc4ccc(Cl)cc4)nc3c2)c1 | 26.4 | > 100 | –
CC1=Nc2ccccc2/C1=C\c1nc(-c2ccc(C(F)(F)F)cc2)oc1O | 1.71 | > 100 | > 40
O=C(CC(SCc1ccco1)c1ccc(O)cc1)c1cccs1 (stereo not drawn) | 27.4 | > 100 | > 40
CCCNC1=C(N(C(C)=O)c2cccc(F)c2)C(=O)c2ccccc2C1=O | 2.75 | 4.13 | 29.9
N=C1SC(c2ccccc2)C(=O)N1c1ncc(Cc2ccccc2Cl)s1 (stereo not drawn) | 71 | > 100 | 29.5
Cc1cccc(N2CCN(C(=O)/C=C/c3cccs3)CC2C)c1 (stereo not drawn) | 23.4 | 26.5 | –
N#CC(c1cccc(Cl)c1)c1ccc2c(C(F)(F)F)cc(C(F)(F)F)nc2n1 (stereo not drawn) | – | – | 0.415
CCC(=O)Nc1nc2ccccc2n1Cc1ccc(Cl)cc1 | < 0.195 | > 100 | > 40
O=C(NCCc1c[nH]c2ccccc12)c1cc2ccccc2oc1=O | < 0.195 | < 0.195 | –
CSc1nc(-c2ccccc2)nc(C(Cl)Cl)n1 | 1.37 | 2.04 | 6.42
Cc1ccc(NC(=O)N2CCC(c3nc4c(nnn4Cc4cccc(Cl)c4)c(=O)[nH]3)CC2)cc1 | 5.13 | 6.62 | –
CCOc1ccc2nc(/N=C/c3c(C)[nH]n(-c4ccc(C)cc4)c3=O)sc2c1 | 9.04 | > 100 | > 40
CCOCCOC(=O)COc1ccc2c(-c3ccccc3)cc(=O)oc2c1 | 1.28 | 4.32 | –
COc1ccc(C2CC(=O)C3=C(C2)NC(C)=C(C#N)C3c2ccc(N(C)C)cc2)cc1 (stereo not drawn) | 12.5 | 21.9 | –
OC(CN1CCN(c2ccccn2)CC1)Cn1c2ccc(Cl)cc2c2cc(Cl)ccc21 (stereo not drawn) | 2.31 | 3.12 | 21.5
CC(=O)NC(=O)c1ccc(-c2ccc(Cl)cc2)o1 | 11.3 | > 100 | –
Cc1ccc(-n2nnnc2Sc2nc([N+](=O)[O-])nn2C)cc1C | 7.23 | 13.2 | 37.6
O=C(Nc1cccnc1)c1c(O)c2cccc3c2n(c1=O)CC3 | 1.87 | 2.08 | –
CCCOC(=O)c1ccc(NC(=O)C2C3C=CC(O3)C2C(=O)O)cc1 (stereo not drawn) | 35.2 | > 100 | –
COc1ccc(N=C2CCS(=O)(=O)c3sccc32)cc1 | 54.3 | > 100 | –

SMILES | IC50 [µM] | IC90 [µM] | CC50 [µM]
CCOC(=O)c1ccc(NC(=O)N2CCN(Cc3ccccc3)CC2)cc1 | – | > 100 | –
O=C(C[n+]1cc(-c2ccccc2)n2c1CCC2)Nc1nc(-c2ccc(F)cc2)cs1 | 19.9 | 42.8 | –
COc1cnc(-c2ccccn2)nc1Sc1ccc(F)cc1 | < 0.195 | 12.9 | 19.2
c1ccc(Oc2nc(-c3ccccn3)nc3ccccc23)cc1 | 2.71 | 13.8 | > 40
CC1CCN(c2ccc(C=O)o2)CC1 | 55.9 | > 100 | –
CCN1CCN(Cc2ccc(NC(=O)c3ccc(C)c(NC(=O)c4cc(-c5ccc(Br)cc5)n[nH]4)c3)cc2C(F)(F)F)CC1 | 2.16 | 2.85 | 13
CC(=O)c1c(C)n(C)c2ccc(O)cc12 | – | > 100 | –
O=C(Nc1nnc(SCc2ccc(F)cc2)s1)c1cnccn1 | 15.6 | > 100 | > 40
CCOC(=O)CN(C#N)c1nc(N(C)C)nc(N(C)C)n1 | 9.34 | 11.7 | –
Cc1ccc(-c2c[n+](CC(=O)Nc3nc(-c4ccccc4)cs3)c3n2CCC3)cc1 | 7.81 | 16.1 | –
COc1ccc(C2NCCc3c2[nH]c2ccccc32)cc1COc1ccc(F)cc1 (stereo not drawn) | 3.11 | 3.39 | 12.1
CC(=O)Nc1sc2c(c1CN1CCN(c3ccc(F)cc3)CC1)CCCC2 | 13.2 | > 100 | > 40
CC1(c2ccccc2)CC(C)(C)N(C(=O)c2cc([N+](=O)[O-])cc([N+](=O)[O-])c2)c2ccccc21 (stereo not drawn) | 13.4 | 54.5 | > 40
CCc1nc(NCc2ccc3c(c2)OCO3)c2oc3ccccc3c2n1 | 8.85 | 17 | > 40
CC(=O)/C=C(\C)Nc1ccccc1O | 0.992 | 2.44 | > 40
O=C(/C=C/c1ccco1)c1ccc(NC(=O)C23CC4CC(CC(C4)C2)C3)cc1 | < 0.195 | > 100 | –
CC(C)OC(=O)c1ccc(NC(=O)c2cncc(Br)c2)cc1 | – | > 100 | –
O=C(C[n+]1cnn(CC(=O)c2ccc(Cl)cc2Cl)c1)c1ccc([N+](=O)[O-])cc1 | 20.3 | 36.8 | –
O=C(Nc1nnc(-c2cccnc2)o1)c1cccc(Cl)c1 | 3.27 | > 100 | 33.7
